Measured values as given in PubChem BioAssay (NCI).
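Where inhibition never reached the appropriate level, the endpoint shown equals the highest concentration tested. Otherwise, values were interpolated linearly from a five-concentration, 48-hour dose response in 96-well plates. TGI: concentration producing complete growth inhibition.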

Assays:
Assay in all cases: NCI-60 cell line screen, 48 h
[1] = system: OVCAR-8 ovarian
[2] = system: HOP-62 NSCLC
[3] = system: SN12C renal
[4] = system: UACC-62 melanoma
[5] = system: M14 melanoma
[6] = system: 786-0 renal
[7] = system: SK-OV-3 ovarian
[8] = system: SF-268 CNS
[9] = system: PC-3 prostate
[10] = system: COLO 205 colon
[11] = system: UO-31 renal
[12] = system: MCF7 breast
[13] = system: MDA-MB-435
[14] = system: SNB-19 CNS
[15] = system: NCI-H23 lung
[16] = system: KM12 colon
[17] = system: DU-145 prostate
[18] = system: MDA-MB-231 breast
[19] = system: SW-620 colon
[20] = system: A549 NSCLC
[21] = system: SR leukemia
[22] = system: HS 578T breast
[23] = system: NCI-H522 lung
[24] = system: SF-295 CNS
[25] = system: IGROV1 ovarian
[26] = system: HOP-92 NSCLC
[27] = system: SF-539 CNS
[28] = system: EKVX NSCLC
[29] = system: CCRF-CEM leukemia
[30] = system: HCT-116 colon
[31] = system: MDA-N
[32] = system: HCT-15 colon
[33] = system: MALME-3M melanoma
[34] = system: ACHN renal
[35] = system: T-47D breast
[36] = system: NCI-H460 lung
[37] = system: NCI/ADR-RES ovarian
[38] = system: MOLT-4 leukemia
[39] = system: BT-549 breast
[40] = system: SK-MEL-2 melanoma
[41] = system: U251 CNS
[42] = system: RPMI-8226 leukemia
[43] = system: OVCAR-5 ovarian
[44] = system: HL-60(TB) leukemia
[45] = system: TK-10 renal
[46] = system: K-562 leukemia
[47] = system: UACC-257 melanoma
[48] = system: CAKI-1 renal
[49] = system: HT29 colon

Nc1cc(CO)cc(Nc2nc3ccc(Cl)cc3c3[nH]c4ccccc4c23)c1
TGI [1]: 18.5 µM
TGI [2]: 27.6 µM
TGI [3]: 12.9 µM
TGI [4]: 5.55 µM
TGI [5]: 16.7 µM
TGI [6]: 6.83 µM
TGI [7]: 22.2 µM
TGI [8]: 10.5 µM
TGI [9]: 19.1 µM
TGI [10]: 11.6 µM
TGI [11]: 11.6 µM
TGI [12]: 3.92 µM
TGI [13]: 15.3 µM
TGI [14]: 44.9 µM
TGI [15]: 40 µM
TGI [16]: 18.6 µM
TGI [17]: 15.2 µM
TGI [18]: 12 µM
TGI [19]: 29.3 µM
TGI [20]: 57.3 µM
TGI [21]: 7.33 µM
TGI [22]: 36.5 µM
TGI [23]: 12.7 µM
TGI [24]: 15 µM
TGI [25]: 8.93 µM
TGI [26]: 9.11 µM
TGI [27]: 14.1 µM
TGI [28]: 15.1 µM
TGI [29]: 23.8 µM
TGI [30]: 25.4 µM
TGI [31]: 21.1 µM
TGI [32]: 18.6 µM
TGI [33]: 15.8 µM
TGI [34]: 15 µM
TGI [35]: 20.8 µM
TGI [36]: 6.56 µM
TGI [37]: 42.5 µM
TGI [38]: 32.2 µM
TGI [39]: 24.6 µM
TGI [40]: 15 µM
TGI [41]: 23.9 µM
TGI [42]: 9.78 µM
TGI [43]: 17.6 µM
TGI [44]: 52.7 µM
TGI [45]: 21.3 µM
TGI [46]: 27.3 µM
TGI [47]: 23.2 µM
TGI [48]: 8.33 µM
TGI [49]: 11.7 µM
